Assay [1] has as its target TcrNT2 (Trypanosoma cruzi, UniProt Q4DHG0). Nature of the assay: Transport of [^3H]-thymidine by TcrNT2 expressed in L. mexicana Cas9^ΔNT1 (Km, inhibition). The class given is cell-based. The procedure, abridged:
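L. mexicana Cas9ΔNT1 expressing TcrNT2, 10^7 cells per point, incubated with [3H]-thymidine for a set time, stopped with ice-cold buffer containing excess unlabeled permeant and oil-spin separation. Km by Michaelis-Menten fit; IC50 by sigmoid fit converted to Ki via Cheng-Prusoff, with ΔG° = −RTln(Ki).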

Assay [2] concerns T. cruzi trypomastigotes. Put plainly: Effect on cell derived trypomastigotes (percent motile parasites). The class given is cell-based. Particulars: Trypanosoma cruzi, 24 h incubation, percent of motile parasites. As to the method:
Trypomastigotes were obtained by infecting CHO-K1 cells. CHO-K1 cells were cultivated in RPMI-1640 medium supplemented with 10% heat-inactivated fetal calf serum (FCS), 0.15% (w/v) […], 100 µg mL^−1 penicillin and 130 µg mL^−1 streptomycin and incubated at 37 °C in a humidified atmosphere containing 5% CO2. CHO-K1 cells were initially incubated with metacyclic trypomastigotes obtained by in vitro differentiation of epimastigotes as previously described (multiplicity of infection: 50 parasites per cell) for 4 h. After washing out the non-internalized parasites, the cells were incubated overnight in RPMI medium supplemented with 10% FCS at 37 °C and then maintained at 33 °C in a humidified atmosphere containing 5% CO2 as previously reported. Infected cells were maintained at 33 °C in the presence of 10% FCS. Infected cell-derived trypomastigotes started to burst into the culture medium at the 5th day post-infection. Trypomastigotes collected at day 5 or 6 post infection were used for the viability assays.
To measure the effect of compounds, cell derived trypomastigotes were collected from the extracellular medium at the fifth or sixth day after infection and counted in a Neubauer chamber. […] After incubation the trypanocidal effect was assessed by counting the percent of motile parasites in a Neubauer chamber. […]

For assay [3], the system named is L. mexicana. More on the design: method as in PMID 28453984. Particulars: ref [36]; read-out: EC50 against L. mexicana; cited from earlier work.
In assay [4] the test system is L. mexicana Cas9^ΔNT1+TcrNT2 promastigotes. Put plainly: Alamar blue drug sensitivity assay, L. mexicana Cas9^ΔNT1+TcrNT2 promastigotes. The class given is cell-based, Leishmania mexicana. Particulars: Cas9^ΔNT1+TcrNT2 in comparison to L. mexicana Cas9^ΔNT1. From the text: (§1) We used L. mexicana promastigotes of the Cas9 strain developed by Beneke at al. to generate the ΔNT1 strain, and from there the Cas9^ΔNT1+TcrNT2 (see below); The original Cas9 strain was generously donated by Prof. Eva Gluenz (University of Bern, Switzerland). All strains in standard HOMEM (GIBCO, Life Technologies, Paisley, UK) supplemented with 10% heat-inactivated fetal bovine serum (FBS; PAA Laboratories, Linz, Austria) and 1% of a penicillin–streptomycin solution (10,000 U mL^−1 each; Life Technologies) at 25 °C, as described.
(§2) The Alamar blue assay (resazurin sodium salt) was used to determine the drug sensitivity of the L. mexicana promastigotes in vitro. The assay is based on the reduction of resazurin sodium salt (blue and non-fluorescent) to resorufin (pink color and fluorescent) by live cells. HOMEM medium with 10% FBS (100 μL) was added to all wells of a white 96-well plate apart from the first well. 200 μL of a known concentration of test compounds was diluted in HOMEM medium and placed in the first well. Compounds were tested in one plate and every compound was diluted over two rows (23 concentrations), leaving the last well of every dilution as a negative control having 100 μL HOMEM medium. Next, 100 μL of L. mexicana culture at a density of 2 × 10^6 cells mL^−1 was added into every well in the plate and incubated for 72 h at a temperature of 25 °C after which resazurin sodium salt (Sigma) (20 μL of a solution of 12.5 mg in 100 mL PBS) was added and the plate was incubated under the same conditions for a further 48 h. Fluorescence was measured in a FLUOstar OPTIMA plate reader (BMG Labtech, Germany), at a wavelength of 544 nm for excitation and 620 nm for emission. The EC50 values and fluorescence data were determined and plotted by the GraphPad Prism 8 Software using an equation for a sigmoid curve with variable slope. Pentamidine was used as positive control and every experiment was performed 3–4 times independently.
Background: The colour change of resazurin is a common sign of viable cells or microbes.

Assay [5] has as its system L. mexicana Cas9^ΔNT1 promastigotes. Nature of the assay: Alamar blue drug sensitivity assay, L. mexicana Cas9^ΔNT1 promastigotes. Particulars: EC50 Cas9^ΔNT1 relative to L. mexicana Cas9. The class given is cell-based, Leishmania mexicana.
Text: as §1, §2

Assay [6] deals with Leishmania major. Details: method as in PMID 28453984. Particulars: ref [36]; read-out: EC50 against Leishmania major; cited from earlier work.

These results are taken from paper PMC9693223 (Molecules, 2022).

Chain of TcrNT2 (Q4DHG0 entry or part of it): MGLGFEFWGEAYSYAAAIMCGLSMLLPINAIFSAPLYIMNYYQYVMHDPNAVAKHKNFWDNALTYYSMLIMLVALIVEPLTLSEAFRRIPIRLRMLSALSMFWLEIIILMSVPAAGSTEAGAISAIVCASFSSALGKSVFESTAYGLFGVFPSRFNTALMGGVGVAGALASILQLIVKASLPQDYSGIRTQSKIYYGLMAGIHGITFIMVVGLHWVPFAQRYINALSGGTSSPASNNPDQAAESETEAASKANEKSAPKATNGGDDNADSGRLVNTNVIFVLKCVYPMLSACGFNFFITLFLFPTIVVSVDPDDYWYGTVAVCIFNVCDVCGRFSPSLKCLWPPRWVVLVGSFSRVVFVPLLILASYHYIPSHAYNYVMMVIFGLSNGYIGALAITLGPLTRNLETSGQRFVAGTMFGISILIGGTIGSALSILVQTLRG

As for `O=c1[nH]c(=O)n([C@H]2C[C@H](O)[C@@H](CO)O2)cc1F` [5-F-2′-dUrd, 5-F-2′-deoxyuridine], the “ΔG° (Gibbs free energy of interaction)” value in assay [1] (calculated from Km or Ki at 25 °C) is -7.93 kcal/mol. Besides, in assay [1] (change in ΔG° relative to thymidine), the “δ(ΔG°) with respect to ΔG° of thymidine” value was -1.03 kcal/mol. Besides, the Ki (in general, a measure of affinity in units of concentration, obtained from inhibition or displacement) in assay [1] (read-out: Ki on the transport of [^3H]-thymidine by TcrNT2) was determined as 1.5 ± 0.12 µM. The inhibition (in general, the drop in the measured response relative to a control, in per cent) at 31 µM in assay [2] was approximately 30%. Besides, the EC50 (in general, the midpoint of the concentration-response curve) was 1.7 µM in assay [3] and 1.4 µM in assay [6]. Moreover, the “RF vs. ΔNT1 (resistance factor)” value in assay [4] was determined as 14.8. Besides, the “RF vs. Cas9 (resistance factor)” value in assay [5] is listed as 26.6.
